Earlier results, collected in patent US20030004177A1, “Abuse-resistant opioid dosage form” (Endo Pharmaceuticals, Inc., priority 2001, published 2003).
Where two headings read alike, the source gives them in different places.

Tests used:
opioid effect = conditions: injection or intranasal administration

In the case of `C=CCN1CC[C@]23c4c5ccc(O)c4O[C@H]2C(=O)CC[C@@]3(O)[C@H]1C5` [naloxone], the bioavailability (administered orally) is listed as “very low”, the bioavailability (administered parenterally) is listed as “high” and the “amount needed to antagonize the opioid effect, to induce abstinence in dependent individuals, and to prevent abuse” value (opioid effect) is listed as 0.2 to 0.4 mg.
